Test results as given in ChEMBL document CHEMBL5291721, “A preclinical secondary pharmacology resource illuminates target-adverse drug reaction associations of marketed drugs” (Nat Commun, 2023).
Blank lines part the entries; values can stand above or below the molecule they belong to.

Legend:
[1] = molecular target: T1, Oxysterols receptor LXR-beta (Homo sapiens, UniProt P55055); assay type: functional
T1 sequence (P55055 whole entry): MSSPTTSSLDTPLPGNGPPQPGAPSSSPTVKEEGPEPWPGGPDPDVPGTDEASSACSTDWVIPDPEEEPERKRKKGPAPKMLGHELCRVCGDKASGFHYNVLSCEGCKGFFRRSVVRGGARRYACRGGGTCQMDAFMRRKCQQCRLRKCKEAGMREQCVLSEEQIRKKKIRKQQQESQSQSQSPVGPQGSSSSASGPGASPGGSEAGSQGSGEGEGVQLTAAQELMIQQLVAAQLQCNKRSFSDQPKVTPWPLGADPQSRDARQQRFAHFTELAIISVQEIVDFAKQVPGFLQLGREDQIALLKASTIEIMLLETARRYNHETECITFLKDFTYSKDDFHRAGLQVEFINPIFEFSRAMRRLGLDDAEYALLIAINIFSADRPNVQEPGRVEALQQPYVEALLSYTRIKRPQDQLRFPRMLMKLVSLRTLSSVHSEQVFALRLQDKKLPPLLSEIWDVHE

[2] = molecular target: T1, Oxysterols receptor LXR-beta; assay type: functional; remark: listed apart in the source
Bile acid receptor [3] = molecular target: T2, Bile acid receptor (Homo sapiens, UniProt Q96RI1); assay type: functional
T2 sequence (Q96RI1 whole entry): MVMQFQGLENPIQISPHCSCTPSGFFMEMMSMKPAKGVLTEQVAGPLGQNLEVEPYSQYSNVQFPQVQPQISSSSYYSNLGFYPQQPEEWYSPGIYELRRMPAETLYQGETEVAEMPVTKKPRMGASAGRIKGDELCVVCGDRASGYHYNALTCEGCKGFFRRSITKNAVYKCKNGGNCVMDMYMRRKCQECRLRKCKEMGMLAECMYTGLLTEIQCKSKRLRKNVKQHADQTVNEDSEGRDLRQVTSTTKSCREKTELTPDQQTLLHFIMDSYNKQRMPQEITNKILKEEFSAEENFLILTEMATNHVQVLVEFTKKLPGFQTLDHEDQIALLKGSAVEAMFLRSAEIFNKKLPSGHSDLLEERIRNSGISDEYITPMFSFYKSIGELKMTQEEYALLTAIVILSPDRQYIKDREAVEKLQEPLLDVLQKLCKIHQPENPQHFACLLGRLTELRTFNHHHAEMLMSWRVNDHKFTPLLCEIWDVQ

Bile acid receptor [4] = molecular target: T2, Bile acid receptor; assay type: functional; remark: listed apart in the source
Bile acid receptor [5] = molecular target: T2, Bile acid receptor; assay type: functional; remark: listed apart in the source
Bile acid receptor [6] = molecular target: T2, Bile acid receptor; assay type: functional; remark: listed apart in the source
[7] = molecular target: T3, Retinoic acid receptor beta (Homo sapiens, UniProt P10826); assay type: functional, cell-based
T3 sequence (P10826 whole entry): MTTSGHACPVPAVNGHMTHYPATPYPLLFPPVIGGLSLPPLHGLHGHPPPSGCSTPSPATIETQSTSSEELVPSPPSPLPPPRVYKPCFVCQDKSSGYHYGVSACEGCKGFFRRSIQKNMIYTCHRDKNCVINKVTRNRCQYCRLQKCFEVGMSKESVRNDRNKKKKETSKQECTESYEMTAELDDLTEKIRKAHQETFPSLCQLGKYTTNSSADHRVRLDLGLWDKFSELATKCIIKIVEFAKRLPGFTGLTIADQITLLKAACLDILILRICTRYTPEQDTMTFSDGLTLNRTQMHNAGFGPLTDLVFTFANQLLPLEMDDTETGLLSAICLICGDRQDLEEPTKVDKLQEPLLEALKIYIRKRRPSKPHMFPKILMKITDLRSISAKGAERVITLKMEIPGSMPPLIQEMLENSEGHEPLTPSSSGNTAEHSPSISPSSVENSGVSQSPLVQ

[8] = molecular target: T4, Retinoic acid receptor gamma (Homo sapiens, UniProt P13631); assay type: functional, cell-based
T4 sequence (P13631 whole entry): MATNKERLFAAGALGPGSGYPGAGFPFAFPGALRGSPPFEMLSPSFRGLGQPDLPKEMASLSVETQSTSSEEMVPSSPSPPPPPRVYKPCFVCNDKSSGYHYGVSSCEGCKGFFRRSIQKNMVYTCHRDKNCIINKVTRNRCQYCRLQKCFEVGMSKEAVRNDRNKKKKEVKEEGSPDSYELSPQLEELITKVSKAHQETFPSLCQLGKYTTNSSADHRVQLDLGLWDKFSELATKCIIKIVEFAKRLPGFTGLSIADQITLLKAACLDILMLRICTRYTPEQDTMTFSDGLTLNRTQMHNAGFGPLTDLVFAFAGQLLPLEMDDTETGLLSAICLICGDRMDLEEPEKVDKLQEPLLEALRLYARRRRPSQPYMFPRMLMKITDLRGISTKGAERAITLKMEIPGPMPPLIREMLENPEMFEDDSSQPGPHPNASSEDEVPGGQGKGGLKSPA

[9] = molecular target: T4, Retinoic acid receptor gamma; assay type: functional, cell-based; remark: listed apart in the source
[10] = molecular target: T5, Type-2 angiotensin II receptor (Homo sapiens, UniProt P50052); assay type: functional
T5 sequence (P50052 whole entry): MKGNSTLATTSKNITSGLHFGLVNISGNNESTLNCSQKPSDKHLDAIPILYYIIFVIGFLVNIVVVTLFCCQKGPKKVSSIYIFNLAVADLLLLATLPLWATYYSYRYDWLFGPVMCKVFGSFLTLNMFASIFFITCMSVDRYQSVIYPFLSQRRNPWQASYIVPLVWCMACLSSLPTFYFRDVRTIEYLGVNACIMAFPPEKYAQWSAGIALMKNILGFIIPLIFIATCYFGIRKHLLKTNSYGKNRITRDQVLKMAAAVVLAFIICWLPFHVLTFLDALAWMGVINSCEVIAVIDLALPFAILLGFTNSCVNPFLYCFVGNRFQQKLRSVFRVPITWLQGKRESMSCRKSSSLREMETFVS

D(1B) dopamine receptor = D(1B) dopamine receptor (Homo sapiens, UniProt P21918)
D(1B) dopamine receptor, sequence (P21918 whole entry): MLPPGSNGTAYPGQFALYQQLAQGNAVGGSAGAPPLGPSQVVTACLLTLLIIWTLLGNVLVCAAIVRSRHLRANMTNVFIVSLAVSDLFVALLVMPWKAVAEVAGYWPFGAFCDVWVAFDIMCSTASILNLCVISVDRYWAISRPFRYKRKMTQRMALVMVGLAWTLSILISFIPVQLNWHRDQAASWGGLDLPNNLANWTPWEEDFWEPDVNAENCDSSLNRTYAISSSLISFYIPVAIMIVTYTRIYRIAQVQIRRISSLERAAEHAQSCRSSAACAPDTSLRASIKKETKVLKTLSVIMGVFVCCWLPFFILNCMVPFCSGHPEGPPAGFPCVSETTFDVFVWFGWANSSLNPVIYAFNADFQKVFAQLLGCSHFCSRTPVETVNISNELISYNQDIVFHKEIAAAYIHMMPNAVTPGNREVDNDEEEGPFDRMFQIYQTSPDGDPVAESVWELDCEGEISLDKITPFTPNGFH

[11] = molecular target: Rod cGMP-specific 3',5'-cyclic phosphodiesterase subunit alpha (Homo sapiens, UniProt P16499); assay type: functional
Rod cGMP-specific 3',5'-cyclic phosphodiesterase subunit alpha, sequence (P16499 whole entry): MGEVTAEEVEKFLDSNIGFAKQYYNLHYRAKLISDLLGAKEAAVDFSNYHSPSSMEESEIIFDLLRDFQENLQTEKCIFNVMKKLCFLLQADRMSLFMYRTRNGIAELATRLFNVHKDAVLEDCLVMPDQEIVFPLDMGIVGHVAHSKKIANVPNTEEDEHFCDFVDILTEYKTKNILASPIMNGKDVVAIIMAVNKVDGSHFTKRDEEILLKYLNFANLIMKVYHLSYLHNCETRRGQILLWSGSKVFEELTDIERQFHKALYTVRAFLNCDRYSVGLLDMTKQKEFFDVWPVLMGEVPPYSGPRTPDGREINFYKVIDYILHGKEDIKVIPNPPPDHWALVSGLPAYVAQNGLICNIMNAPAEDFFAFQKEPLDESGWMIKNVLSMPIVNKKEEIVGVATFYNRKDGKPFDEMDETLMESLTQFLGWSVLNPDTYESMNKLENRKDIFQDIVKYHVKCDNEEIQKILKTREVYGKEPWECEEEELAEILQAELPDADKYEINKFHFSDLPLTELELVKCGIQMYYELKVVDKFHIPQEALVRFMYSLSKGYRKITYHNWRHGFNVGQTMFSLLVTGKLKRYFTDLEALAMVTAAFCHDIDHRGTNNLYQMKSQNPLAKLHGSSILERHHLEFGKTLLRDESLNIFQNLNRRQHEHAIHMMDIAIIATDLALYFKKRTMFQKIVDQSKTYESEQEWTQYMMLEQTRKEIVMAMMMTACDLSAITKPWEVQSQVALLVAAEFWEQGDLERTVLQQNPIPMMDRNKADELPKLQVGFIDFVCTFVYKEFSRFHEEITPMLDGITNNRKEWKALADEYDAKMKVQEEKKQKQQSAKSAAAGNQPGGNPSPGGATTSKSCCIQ
Further: assay procedure not described here.

- AC50 [1]: > 30 µM
- AC50 [2]: > 30 µM
- AC50 (Bile acid receptor [3]): > 30 µM
- AC50 (Bile acid receptor [4]): > 30 µM
- AC50 (Bile acid receptor [5]): > 30 µM
- AC50 (Bile acid receptor [6]): 16 µM
- AC50 [7]: > 30 µM
- AC50 [8]: > 30 µM
- AC50 [9]: > 30 µM
Compound: CC(C)/N=c1\cc2n(-c3ccc(Cl)cc3)c3ccccc3nc-2cc1Nc1ccc(Cl)cc1 [CLOFAZIMINE]

- AC50 [10]: > 100 µM
Compound: C[C@H](CS)C(=O)N1CCC[C@H]1C(=O)O [CAPTOPRIL]

Compound: CCOC(=O)[C@H](CCc1ccccc1)N[C@@H](C)C(=O)N1Cc2ccccc2C[C@H]1C(=O)O
- AC50 (D(1B) dopamine receptor): > 10 µM
- AC50 [11]: > 10 µM
